Laboratory results from patent US11000537B2, “Composition comprising novel ginsenoside” (AMOREPACIFIC CORPORATION, priority 2018, dated 2021).

Columns and labels:
3T1-L1 adipocytes = assay: glucose uptake (glucose transport) in differentiated adipocytes; format: cell-based; details: 1, 10 μM; compared with ginsenosides Rg1, Rg3, Rb1; FIG. 16
LDL receptor (LDLR) = assay: LDL receptor gene expression in HepG2 (qPCR); format: cell-based; details: 24 hours
[1] = test system: FAS (Fatty acid synthase); assay: FAS gene expression in HepG2 (qPCR); format: cell-based; details: 24 hours
Protocol: The hepatocyte cell line HepG2 purchased from the International Center for Biological Resources (ATCC) were placed in Dulbecco's Modified Eagle's Medium (Sigma) to which 10% fetal bovine serum (Hyclone) and 1% penicillin/streptomycin (Sigma) were added, and cultured in a 5% CO2 incubator. […] After 24 hours of treatment, cells were collected, RNA was extracted using Trizol™ reagent (Thermo Fisher Scientific), and cDNA was synthesized using RevertAid™ 1st strand cDNA synthesis kit (Thermo Fisher Scientific). Bio-Rad's CFX96 real-time quantitative PCR (qPCR) instrument was used to observe the expression of the genes SREBP1c (sterol-regulatory element binding protein 1c), ACC (acetyl-CoA carboxylase) and FAS (Fatty acid synthase), which induces fat synthesis or accumulation.

pancreatic lipase = pancreatic lipase activity inhibition (Pancreatic Lipase Activity Assay Kit); format: cell-based
Protocol: The hepatocyte cell line HepG2 purchased from the International Center for Biological Resources (ATCC) were placed in Dulbecco's Modified Eagle's Medium (Sigma) to which 10% fetal bovine serum (Hyclone) and 1% penicillin/streptomycin (Sigma) were added, and cultured in a 5% CO2 incubator. As a positive control for the cells, Xenical (Sigma), which are used as pancreatic lipase inhibitors and anti-obesity therapeutic agents, and seven types of ginsenosides (GS #01-GS #06, GS #10; 10 μM each) extracted from Ginseng seed were treated for 1 hour. In addition, Pancreatic Lipase Activity Assay Kit (Abcam) was used to observe the inhibition of each lipase activity.

α-glucosidase = α-glucosidase enzyme activity inhibition; format: biochemical
Protocol: As a polysaccharide degrading enzyme, pancreatic α-amylase and α-glucosidase were purchased from Sigma, and the enzyme activity of novel ginsenoside GS #10, which is an example of the present disclosure, isolated from Ginseng seed extract and ginsenosides GS #01-GS #06, which are comparative examples of the present disclosure, was measured. In order to measure α-amylase activity, enzyme solution was prepared by dissolving BSA 0.1 g, 0.01 g/L NaN3, α-amylase 0.2857 g in 50 mL of PBS (phosphate buffered saline), and 5 mM of p-nitrophenyl-α-D-maltopentoglycoside was dissolved in another PBS to make a substrate solution. 0.1 mL of the test substance was added to 0.5 mL of the enzyme solution, and then the initial absorbance was measured at 405 nm. After adding 0.5 mL of the substrate solution and reacting it for 5 minutes, the absorbance was measured again. The change in enzyme activity was measured by the difference in absorbance between the two reactions. The method for measuring α-glucosidase activity is the same as the method for measuring α-amylase activity, and differs only in α-glucosidase and substrate (p-nitrophenyl-α-D-glucopyranoside). As a positive control to observe the inhibition of enzyme activity, acarbose, which is an α-amylase inhibitor and α-glucosidase inhibitor derived from wheat seed sold by Sigma, was used.

[2] = test system: human umbilical vein endothelial cells (HUVEC); assay: nitric oxide (NO) production in vascular endothelial cells; format: cell-based
Description: Since nitric oxide is made by […] nitric oxide synthase (eNOS), in this experiment, it was confirmed whether the novel ginsenoside GS #10 of the example of the present disclosure can promote the production of nitric oxide through eNOS activity control in vascular endothelial cells. Specifically, the human umbilical vein endothelial cells (HUVEC) were purchased from the International Center for Biological Resources (ATCC) and cultured, and then the amount of nitric oxide (NO) produced by treating the novel ginsenoside GS #10 at a concentration of 1 to 10 μg/ml was measured.

[3] = test system: human umbilical vein endothelial cells (HUVECs); assay: survival rate of vascular endothelial cells (MTT); format: cell-based
Protocol: In this experiment, it was confirmed whether the novel ginsenoside GS #10 of an embodiment of the present disclosure can increase the survival rate of vascular endothelial cells. Specifically, human umbilical vein endothelial cells (HUVECs) were purchased from the International Center for Biological Resources (ATCC) and cultured, and then the novel ginsenoside GS #10 was treated at a concentration of 1-10 μg/ml and MTT(3-(4,5-dimethylthiazol-2-yl)-2,5-diphenyltetrazolium bromide) analysis was performed to observe cell death.

SH-SY5Y cells = assay: cytotoxicity, Cell Counting Kit (CCK)-8; format: cell-based; details: 0.1, 1, 5, 10, 20 and 50 μM, FIG. 17
Protocol: 10 μl of the CCK-8 reagent was added to the culturing SH-SY5Y cells (Dojindo, Md., USA) with reference to a 96-well plate, and left at 37° C. for 2 hours, and then the absorbance was measured at 450 nm. The cell viability was marked as a percentage (%) of the absolute optical density of each sample relative to the untreated sample. At this time, the concentration of the novel ginsenoside GS #10, which is an example of the present disclosure, contained in the medium in which the cells were cultured was 0.1, 1, 5, 10, 20, and 50 μM, respectively.

Structure (SMILES): CC1(C)C(=O)CC[C@@]2(C)C1[C@@H](O[C@H]1OC(CO)[C@H](O)C(O)C1O[C@H]1OC(CO)[C@H](O)C(O)C1O)C[C@]1(C)C2C[C@@H](O)C2C([C@]3(C)CC[C@H](C(C)(C)O)O3)CC[C@]21C (stereo partly drawn) [GS #10, (20S,24R)-6-O-β-D-glucopyranosyl(1→2)-β-D-glucopyranoside-dammar-3-one-20,24-epoxy-6a,12b,25-triol]
- glucose transport ability (3T1-L1 adipocytes): much superior
- increase of LDLR expression level compared to the control (−) (LDL receptor (LDLR); 10 μM, HepG2, FIG. 29): more than 2 times
- promotion of intracellular transport (LDLR expression) (LDL receptor (LDLR); 1 and 10 μM, compared with Rg1, Rg3, Rb1, FIG. 32): most effective in inhibiting cholesterol synthesis and promoting intracellular transport
- FAS expression inhibitory effect ([1]; 10 μM, HepG2, FIG. 20): significantly higher expression inhibitory effect
- FAS expression inhibitory effect ([1]; 1, 10 μM, compared with Rg1, Rg3, Rb1, FIG. 25): far superior in lipid metabolism inhibitory effect
- lipase activity inhibitory effect relative to that of the conventional ginsenoside (pancreatic lipase; 10 μM, 1 hour, FIG. 22): ≥ 2 times
- pancreatic lipase activity inhibitory effect (pancreatic lipase; 10 μM, 1 hour, FIG. 22): the best
- pancreatic lipase activity inhibition (pancreatic lipase; 1, 10 μM, compared with Rg1, Rg3, Rb1, FIG. 27): far superior in lipid metabolism inhibitory effect
- α-glucosidase activity inhibitory effect (α-glucosidase; 1, 10 μM, compared with ginsenosides Rg1, Rg3, Rb1, FIG. 15): much superior
- α-glucosidase activity inhibitory effect (α-glucosidase; Test Example 1, FIG. 12, ginseng seed ginsenosides compared): high inhibitory effect on α-glucosidase activity
- NO production efficacy relative to ginsenoside Re (GS #03) ([2]; 10 μg/ml, HUVEC, FIG. 43): ≥ 2 times
- NO production-increasing effect ([2]; 10 μg/ml, HUVEC, compared with GS #01 to GS #06, FIG. 43): significantly greater NO production-increasing effect
- increased production of nitric oxide (NO) ([2]; 10 μg/ml, compared with Rg1, Rg3, Rb1, FIG. 46): far superior
- nitric oxide (NO) production ([2]; 1 to 10 μg/ml, HUVEC, FIG. 42): increase NO production in a concentration-dependent manner
- survival rate-increasing effect of vascular endothelial cells ([3]; 10 μg/ml, MTT, compared with GS #01-GS #06, FIG. 45): highest survival rate-increasing effect of vascular endothelial cells
- increased survival rate of vascular endothelial cells (HUVEC) ([3]; 10 μg/ml, compared with Rg1, Rg3, Rb1, FIG. 47): far superior
- survival rate of HUVEC ([3]; 1-10 μg/ml, MTT, FIG. 44): increase the survival rate of HUVEC regardless of the concentration
- cytotoxicity (cell viability) (SH-SY5Y cells): did not exhibit cytotoxicity up to 50 μM
